Patent publication US20220387457A1 (Qlaris Bio, Inc., priority 2020, published 2022)

Key:
[1] = biological target: T1, human Kir6.2/SUR2B KATP channel (Homo sapiens, UniProt O60706); assay: FLIPR membrane potential assay in HEK-Kir6.2/SUR2B cells; assay type: cell-based; settings: glibenclamide 10 μM
T1 construct: expressed in transfected cells
Method: The ability of CKLP1 and the active moiety of CKLP1, leveromakalim, to pharmacologically modulate the function of the human ATP-sensitive potassium channel comprised of Kir6.2 (encoded by the human gene KCNJ11) coupled to the sulfonylurea receptor SUR2B (encoded by the human gene ABCC9) was studied.
Compounds were dissolved up to 10 mM stock solution in DMSO. Ten-point concentration response curves were generated at 100× concentration in 100% DMSO. Compound source plates were made by serially diluting 10 mM compound stocks in DMSO to generate a progressive semilog dilution schema. Dose response stock plate (10 μL) were then transferred into assay plates containing 90 μL of assay buffer, generating 10× working concentrations. Final assay test concentration ranges of 100 μM to 0.003 μM with a final DMSO concentration of 1.0%.
Human embryonic kidney (HEK) cells stably expressing human Kir6.2/SUR2B KATP channel subunits were plated onto 96 well, black poly-d-lysine (PDL)-coated microplates and maintained in growth media the day prior to use for experiments. Media was removed from the plates and 90 μL of 1× stock of the membrane potential sensitive fluorescent dye FMP-Blue resuspended in assay buffer (EBSS—in mM: NaCl 145, KCl 2, Glucose 5, CaCl2) 1.8, MgCl2 0.8, HEPES 10, pH 7.4 with NaOH, 290-300 mOSm) was added to the cells. Cells were incubated at room temperature, protected from light, for 45-60 minutes. After the incubation period, cell, test compound and glibenclamide plates were loaded onto the fluorescence plate reader (FLIPR-TETRA™) and the scanning initiated. The FLIPR measured a 10 second baseline and then added 10 μL of 10× the final desired concentration of test agent. Changes in fluorescence were monitored for an additional 5 minutes. After the 5-minute compound incubation, 10 μL of the receptor inhibitor glibenclamide was added to the cell plate (10 uM final glibenclamide concentration). Changes in fluorescence was then monitored for an additional 5 minutes.
Compound modulation of Kir6.2/SUR2B KATP channel mediated changes in cellular membrane potential was determined as follows. After the administration of compound, FMP fluorescence was monitored for a 5-minute period. The following parameters were recorded and exported from the FLIPR: the average relative fluorescence response (RFU) of 5 images taken at the 5-minute point in the assay with the average background EBSS buffer response subtracted. […] Test agent effect was calculated as % activation using the following formula: […]
Curve fits were performed in GraphPad Prism graphing software using a 4-parameter, variable slope fit equation.

[2] = tested on: α-SMA, CD31, endothelin-I, fibronectin, VE-cadherin, phospho-eNOS and total eNOS; assay: Protein expression (western blot, immunocytochemistry) in 3D HTM/SC constructs; assay type: cell-based, human; settings: levcromakalim 1, 10 or 100 μM, Y-27632 10 μM
Method: Bioengineered 3D conventional outflow tract constructs using 4 donors (ages 47-91) were treated with […] (5 ng/mL) for 6 days. […] Protein expression of α-smooth muscle actin (α-SMA), CD31, endothelin-I, fibronectin, VE-cadherin, phospho-eNOS and total eNOS was analyzed via western blot. Cellular expression of α-SMA, fibronectin, phospho-eNOS and total eNOS was determined by immunocytochemistry and confocal microscopy. Statistical significance was determined by one-way ANOVA with a Tukey's multiple comparisons test, or by two-way ANOVA.

single KATP channels = settings: in the presence of ATP; Brayden et al. 1991; cited from earlier work
[3] = cited from earlier work

T1 sequence (O60706 1-1549 isoform O60706-2): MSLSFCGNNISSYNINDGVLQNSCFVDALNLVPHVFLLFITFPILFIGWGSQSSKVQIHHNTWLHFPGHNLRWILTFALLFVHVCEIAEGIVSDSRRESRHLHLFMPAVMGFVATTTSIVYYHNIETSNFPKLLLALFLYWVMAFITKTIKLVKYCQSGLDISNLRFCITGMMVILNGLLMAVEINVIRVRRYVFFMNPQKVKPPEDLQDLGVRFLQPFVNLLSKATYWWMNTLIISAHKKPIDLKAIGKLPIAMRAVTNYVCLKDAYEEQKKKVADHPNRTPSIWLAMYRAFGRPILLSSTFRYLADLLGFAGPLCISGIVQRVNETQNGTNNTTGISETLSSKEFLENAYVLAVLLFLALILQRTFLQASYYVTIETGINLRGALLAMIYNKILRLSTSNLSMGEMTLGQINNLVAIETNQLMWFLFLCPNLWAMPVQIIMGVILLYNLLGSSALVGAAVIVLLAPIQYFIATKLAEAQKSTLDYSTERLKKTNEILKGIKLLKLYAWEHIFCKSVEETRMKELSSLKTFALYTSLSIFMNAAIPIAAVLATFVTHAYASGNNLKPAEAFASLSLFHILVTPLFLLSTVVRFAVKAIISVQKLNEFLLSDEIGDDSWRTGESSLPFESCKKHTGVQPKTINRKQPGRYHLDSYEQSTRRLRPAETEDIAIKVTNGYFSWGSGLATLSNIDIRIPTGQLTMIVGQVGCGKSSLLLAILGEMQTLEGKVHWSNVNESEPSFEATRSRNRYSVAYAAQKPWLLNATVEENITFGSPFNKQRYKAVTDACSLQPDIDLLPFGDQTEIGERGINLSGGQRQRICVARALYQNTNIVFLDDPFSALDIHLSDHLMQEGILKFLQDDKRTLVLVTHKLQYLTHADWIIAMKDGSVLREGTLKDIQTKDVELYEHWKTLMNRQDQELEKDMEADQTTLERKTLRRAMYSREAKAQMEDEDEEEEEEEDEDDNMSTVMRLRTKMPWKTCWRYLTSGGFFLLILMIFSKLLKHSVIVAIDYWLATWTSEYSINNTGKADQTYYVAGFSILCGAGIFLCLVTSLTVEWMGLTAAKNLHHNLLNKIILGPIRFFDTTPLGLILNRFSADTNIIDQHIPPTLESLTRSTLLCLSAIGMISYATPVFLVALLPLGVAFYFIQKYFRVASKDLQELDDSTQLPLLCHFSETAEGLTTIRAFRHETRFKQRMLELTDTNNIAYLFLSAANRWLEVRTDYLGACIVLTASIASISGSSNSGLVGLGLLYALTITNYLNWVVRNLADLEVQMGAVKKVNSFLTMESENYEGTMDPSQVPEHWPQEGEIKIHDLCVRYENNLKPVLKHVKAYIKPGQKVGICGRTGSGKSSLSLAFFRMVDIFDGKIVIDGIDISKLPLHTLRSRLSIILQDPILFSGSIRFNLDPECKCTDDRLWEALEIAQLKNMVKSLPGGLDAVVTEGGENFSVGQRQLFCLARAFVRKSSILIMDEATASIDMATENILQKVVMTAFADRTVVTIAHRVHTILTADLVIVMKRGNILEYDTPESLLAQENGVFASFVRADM
T1 sequence (Q14654 whole entry partner): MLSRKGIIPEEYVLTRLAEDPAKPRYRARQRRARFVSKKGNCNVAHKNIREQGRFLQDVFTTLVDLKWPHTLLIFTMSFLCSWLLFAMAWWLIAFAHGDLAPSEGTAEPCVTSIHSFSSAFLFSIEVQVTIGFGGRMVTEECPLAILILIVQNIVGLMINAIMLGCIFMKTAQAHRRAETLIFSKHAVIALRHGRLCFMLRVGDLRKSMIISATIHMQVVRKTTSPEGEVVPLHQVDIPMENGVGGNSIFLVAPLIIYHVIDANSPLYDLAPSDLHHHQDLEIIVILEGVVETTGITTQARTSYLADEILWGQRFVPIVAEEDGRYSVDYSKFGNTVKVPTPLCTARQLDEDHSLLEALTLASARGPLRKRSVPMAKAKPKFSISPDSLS

SMILES | hyperpolarization reversed by coadministration of glibenclamide [1] | expression of the cell adhesion proteins CD31 and VE-Cadherin [2] | expression of the cell adhesion proteins CD31 and VE-Cadherin ([2]; listed as Y27632) | increase of open-state probability (Popen) of single KATP channels (single KATP channels) | solubility in water [3]
CC(N/C(=N\C#N)Nc1ccncc1)C(C)(C)C (stereo not drawn) [Pinacidil, pinacidil, reference compound] | reversed | – | – | – | –
C[C@@H](N)[C@H]1CC[C@H](C(=O)Nc2ccncc2)CC1 [Y-27632] | – | significantly decreased | decreased expression | – | –
CC1(C)Oc2ccc(C#N)cc2C(N2CCCC2=O)C1O (stereo not drawn) [Cromakalim, cromakalim] | reversed | – | – | more than 9 fold | substantially insoluble in water
